Experimental data taken from ChEMBL document CHEMBL1250449, “Aminoglycoside activity observed on single pre-translocation ribosome complexes” (Nat Chem Biol, 2010).
The source made the active and inactive calls. No cut-off for these calls is given here. Numbered stars: 1 amine (or outer) side, 2 acyl side, 3 side chain; on linkers, the order of the positions; unused ones are H or OH. Bridge positions count the residues as written; N and C are the ends. Square brackets hold non-standard residues; d marks the D form. Peptide text beside a SMILES is read from it. * marks the point of attachment. X1 = NC1=N[C@@H]([C@H](N[*:1])C(=O)[*:2])C[C@H](O)N1; ΔAla(Z-3-ureido) = NC(=O)N/C=C(\N)C(=O)O; β3hOrn = NCCC[C@H](N)CC(=O)*; Dap = NC[C@H](N)C(=O)O

How the values were obtained:
[1] = system: Nucleic Acid; experiment: Binding affinity to Escherichia coli 23S rRNA assessed as increase in classical-state occupancy by tRNA at 20 uM by smFRET; format: nucleic-acid assay; conditions: MRE600
[2] = system: Nucleic Acid; experiment: Binding affinity to Escherichia coli 23S rRNA G2553C mutant assessed as increase in classical-state occupancy by tRNA at 20 uM by smFRET; format: nucleic-acid assay; conditions: MRE600
[3] = system: Nucleic Acid; experiment: Binding affinity to Escherichia coli 16S rRNA helix 44 assessed as classical-state occupancy by tRNA; format: nucleic-acid assay; design: concentration or dose not given beside the values; conditions: MRE600
[4] = system: Nucleic Acid; experiment: Binding affinity to Escherichia coli 16S rRNA helix 44 assessed as tRNA translocation rate; format: nucleic-acid assay; conditions: MRE600
[5] = system: Nucleic Acid; experiment: Binding affinity to Escherichia coli 16S rRNA helix 44 assessed as reduction in rate of tRNA exit from classical state at 100 nM; format: nucleic-acid assay; conditions: MRE600
[6] = system: Nucleic Acid; experiment: Binding affinity to Escherichia coli 16S rRNA helix 44 assessed as reduction in rate of tRNA translocation at 100 nM; format: nucleic-acid assay; conditions: MRE600
[7] = system: Nucleic Acid; experiment: Binding affinity to Escherichia coli 16S rRNA helix 44 assessed as classical-state occupancy by tRNA at 100 nM (Rvb= 62.4+/-1.1%); format: nucleic-acid assay; conditions: MRE600
[8] = system: Nucleic Acid; experiment: Binding affinity to Escherichia coli 23S rRNA H69 assessed as classical-state occupancy by tRNA at 20 uM (Rvb= 62.4+/-1.1%); format: nucleic-acid assay; conditions: MRE600
[9] = system: Nucleic Acid; experiment: Binding affinity to Escherichia coli 16S rRNA helix 44 assessed as tRNA translocation rate at 100 nM (Rvb= 1.57+/-0.05 /sec); format: nucleic-acid assay; conditions: MRE600
[10] = system: Nucleic Acid; experiment: Binding affinity to Escherichia coli 23S rRNA H69 assessed as tRNA translocation rate at 20 uM (Rvb= 1.57+/-0.05 /sec); format: nucleic-acid assay; conditions: MRE600
[11] = system: Nucleic Acid; experiment: Binding affinity to Escherichia coli 23S rRNA assessed as decrease in classical-state occupancy by tRNA at 20 uM by smFRET; format: nucleic-acid assay; design: scale not given: the % may be the effect or the level left; conditions: MRE600
[12] = system: Nucleic Acid; experiment: Binding affinity to Escherichia coli 16S rRNA helix 44 assessed as increase in classical-state occupancy by tRNA at 100 nM by smFRET; format: nucleic-acid assay; conditions: MRE600
[13] = system: Nucleic Acid; experiment: Binding affinity to Escherichia coli 16S rRNA helix 44 assessed as decrease in classical-state occupancy by tRNA at 20 uM by smFRET; format: nucleic-acid assay; design: scale not given: the % may be the effect or the level left; conditions: MRE600
[14] = biological target: T1, Bacterial 70S ribosome (Bacteria) (UniProt P0A7V0+P60723+P0AG67+P0A7R5+P0A7R9+P0A7S3+P0A7S9+P0AG59+P0ADZ4+P0A7T3+P0AG63+P0A7T7+P0A7U3+P0A7U7+P68679+P0A7V3+P0A7V8+P0A7W1+P02358+P02359+P0A7W7+P0A7X3+P0A7J3+P0A7J7+P0AA10+P0ADY3+P02413+P0ADY7+P0AG44+P0C018+P0A7K6+P0A7L0+P0A7L3+P0AG48+P61175+P0ADZ0+P60624+P68919+P0A7L8+P0A7M2+P0A7M6+P60422+P0AG51+P0A7N1+P0A7M9+P0A7N4+P0A7N9+P0A7P5+P0A7Q1+Q2EEQ2+P0A7Q6+P60438+P62399+P0AG55+P0A7K2); experiment: Binding affinity to Escherichia coli ribosomal pre-translocation complex assessed as stabilization of hybrid-state occupancy by tRNA at <2 uM; conditions: MRE600
[15] = biological target: T1, Bacterial 70S ribosome (Bacteria); experiment: Binding affinity to Escherichia coli ribosomal pre-translocation complex assessed as stabilization of classical-state occupancy by tRNA at 200 uM; conditions: MRE600
[16] = biological target: T1, Bacterial 70S ribosome (Bacteria); experiment: Binding affinity to Escherichia coli ribosomal pre-translocation complex assessed as decreased rate of EF-G-catalyzed translocation by tRNA at <2 uM; conditions: MRE600
[17] = biological target: T1, Bacterial 70S ribosome (Bacteria); experiment: Binding affinity to Escherichia coli ribosomal pre-translocation complex assessed as stabilization of hybrid-state occupancy by tRNA at 100 nM; conditions: MRE600
[18] = biological target: T1, Bacterial 70S ribosome (Bacteria); experiment: Binding affinity to Escherichia coli ribosomal pre-translocation complex assessed as decreased rate of EF-G-catalyzed translocation by tRNA at 100 nM; conditions: MRE600
[19] = biological target: T1, Bacterial 70S ribosome (Bacteria); experiment: Binding affinity to Escherichia coli ribosomal pre-translocation complex assessed as decreased rate of EF-G-catalyzed translocation fraction by tRNA at 100 nM; conditions: MRE600
[20] = biological target: T1, Bacterial 70S ribosome (Bacteria); experiment: Binding affinity to Escherichia coli ribosomal pre-translocation complex assessed as stabilization of hybrid-state occupancy by tRNA at 2 uM; conditions: MRE600
[21] = system: Nucleic Acid; experiment: Binding affinity to Escherichia coli ribosomal pre-translocation complex assessed as classical-state occupancy by tRNA at 200 uM (Rvb= 62.4+/-1.1%); format: nucleic-acid assay; conditions: MRE600
[22] = system: Nucleic Acid; experiment: Binding affinity to Escherichia coli ribosomal pre-translocation complex assessed as tRNA translocation rate at 200 uM (Rvb= 1.57+/-0.05 /sec); format: nucleic-acid assay; conditions: MRE600
[23] = system: Nucleic Acid; experiment: Binding affinity to Escherichia coli 16S rRNA helix 44 assessed as increase in classical-state occupancy by tRNA at 20 nM to 200 uM by smFRET; format: nucleic-acid assay; conditions: MRE600
[24] = system: Nucleic Acid; experiment: Binding affinity to Escherichia coli 16S rRNA helix 44 assessed as increase in classical-state occupancy by tRNA at >=20 uM by smFRET; format: nucleic-acid assay; conditions: MRE600
[25] = system: Nucleic Acid; experiment: Binding affinity to Escherichia coli 16S rRNA helix 44 assessed as increase in classical-state occupancy by tRNA by smFRET; format: nucleic-acid assay; conditions: MRE600, TDE = time-dependent effect
[26] = system: Nucleic Acid; experiment: Binding affinity to Escherichia coli 23S rRNA G2553C mutant assessed as increase in classical-state occupancy by tRNA by smFRET; format: nucleic-acid assay; conditions: MRE600
[27] = system: Nucleic Acid; experiment: Binding affinity to Escherichia coli 16S rRNA helix 44 assessed as stabilization of classical state occupancy by tRNA by smFRET; format: nucleic-acid assay, MRE600
[28] = system: Nucleic Acid; experiment: Binding affinity to Escherichia coli 23S rRNA assessed as stabilization of classical state occupancy by tRNA by smFRET; format: nucleic-acid assay, MRE600
[29] = system: Nucleic Acid; experiment: Binding affinity to Escherichia coli 16S A1408G rRNA assessed as increase in classical-state occupancy by tRNA by smFRET; format: nucleic-acid assay; conditions: MRE600
[30] = system: Escherichia coli; experiment: Stabilization of classical-state occupancy by tRNA in ribosomal pre-translocation complex in Escherichia coli MRE600 expressing 16S A1408G and 23S G2553C rRNA mutant by smFRET; format: functional
[31] = system: Escherichia coli; experiment: Increase in hybrid-state occupancy by tRNA in ribosomal pre-translocation complex in Escherichia coli MRE600 by smFRET method in presence of 20 uM neomycin; format: functional, organism-based
[32] = system: Escherichia coli; experiment: Increase in hybrid-state occupancy by tRNA in ribosomal pre-translocation complex in Escherichia coli MRE600 by smFRET method in presence of 10 uM neomycin; format: functional
[33] = system: Nucleic Acid; experiment: Binding affinity to Escherichia coli 16S rRNA helix 44 assessed as increase in classical-state occupancy by tRNA by […]; format: nucleic-acid assay, MRE600
[34] = system: Nucleic Acid; experiment: Binding affinity to Escherichia coli 23S rRNA H69 assessed as increase in classical-state occupancy by tRNA by […]; format: nucleic-acid assay; conditions: MRE600
[35] = system: Escherichia coli; experiment: Increase in classical-state occupancy by tRNA in ribosomal pre-translocation complex in Escherichia coli MRE600 by smFRET method in presence of 200 nM neomycin; format: functional, organism-based

CN[C@@H]1[C@@H](O)[C@@H](O[C@@H]2[C@@H](O)[C@H](O[C@H]3O[C@H]([C@@H](C)N)CC[C@H]3N)[C@@H](N)C[C@H]2N)OC[C@]1(C)O
Activity [1]: 5% | Activity [2]: 18% | Activity [3]: 67.2% | Activity [4]: 0.42 s⁻¹

CN[C@@H]1[C@@H](O)[C@@H](O[C@@H]2[C@@H](O)[C@H](O[C@H]3O[C@H]([C@@H](C)NC)CC[C@H]3N)[C@@H](N)C[C@H]2N)OC[C@]1(C)O
Activity [1]: 5% | Activity [2]: 14% | Activity [3]: 67.2% | Activity [4]: 0.42 s⁻¹

NC[C@@H]1O[C@H](O[C@H]2[C@@H](O)[C@H](O[C@@H]3[C@@H](O)[C@H](N)C[C@H](N)[C@H]3O[C@H]3O[C@H](CN)[C@@H](O)[C@H](O)[C@H]3N)O[C@@H]2CO)[C@H](N)[C@@H](O)[C@@H]1O
fold change (FC) [5]: 1.5 | fold change (FC) [6]: 3 | Activity [7]: 70.3% | Activity [8]: 52% | Activity [9]: 0.31 s⁻¹ | Activity [10]: 0.06 s⁻¹ | Activity [11]: 10% | Activity [12]: 6% | Activity [13]: 10%

NC[C@@H]1O[C@H](O[C@H]2[C@@H](O)[C@H](O[C@@H]3[C@@H](O)[C@H](N)C[C@H](N)[C@H]3O[C@H]3O[C@H](CO)[C@@H](O)[C@H](O)[C@H]3N)O[C@@H]2CO)[C@H](N)[C@@H](O)[C@@H]1O
Activity [1]: 2% | Activity [2]: 12% | Activity [3]: 63.9% | Activity [4]: 0.51 s⁻¹

NCCC[C@H](N)CC(=O)N[C@H]1CNC(=O)[C@H]([C@H]2C[C@H](O)NC(N)=N2)NC(=O)/C(=C/NC(N)=O)NC(=O)[C@H](CO)NC(=O)[C@H](CO)NC1=O (β3hOrn-[Dap]SS[ΔAla(Z-3-ureido)][X1]; lactam 1-C)
Activity [14]: Active | Activity [15]: Active | Activity [16]: Active | Activity [17]: 10% | fold change (FC) [18]: 1.5 | fold change (FC) [19]: 2 | Activity [20]: Active | Activity [21]: 46.8% | Activity [22]: 0.04 s⁻¹

NC[C@H]1O[C@H](O[C@H]2[C@H](O)[C@@H](O[C@H]3O[C@H](CO)[C@@H](O)[C@H](N)[C@H]3O)[C@H](N)C[C@@H]2N)[C@H](N)[C@@H](O)[C@@H]1O [BEKANAMYCIN]
Activity [23]: Dose-dependent effect | Activity [24]: Active | Activity [25]: tde | Activity [26]: 25% | Activity [1]: 8% | EC50 [27]: 0.3 µM | EC50 [28]: 0.3 µM | Activity [29]: inactive | Activity [30]: 10% | Activity [2]: 25% | Activity [3]: 69.6% | Activity [4]: 0.27 s⁻¹

NC[C@@H]1O[C@@H](O[C@H]2[C@H](O)[C@@H](O[C@H]3O[C@H](CO)[C@@H](O)[C@H](N)[C@H]3O)[C@H](N)C[C@@H]2N)[C@@H](O)[C@H](O)[C@H]1O [KANAMYCIN A]
Activity [23]: Dose-dependent effect | Activity [24]: Active | Activity [25]: tde | Activity [26]: 25% | Activity [1]: 8% | EC50 [27]: 0.3 µM | EC50 [28]: 0.3 µM | Activity [29]: inactive | Activity [30]: 10% | Activity [2]: 25% | Activity [3]: 69.6% | Activity [4]: 0.27 s⁻¹

COc1ccc(C[C@H](N)C(=O)N[C@H]2[C@@H](O)[C@H](n3cnc4c(N(C)C)ncnc43)O[C@@H]2CO)cc1 [PUROMYCIN]
Activity [31]: Active | Activity [32]: 25% | EC50 [33]: 0.1 µM | Activity [34]: > 1 µM | Activity [35]: Active
